From ChEMBL document CHEMBL4613281, “Missing Selectivity of Targeted 4β-Phorbol Prodrugs Expected to be Potential Chemotherapeutics” (2020) come the findings set out here.

Each structure is given as a SMILES string. The source made the active and inactive calls. The calls are words filed in the database; no cut-off is given here. Starred links: 1 amine or outer side, 2 acyl side, 3 side chain; linkers in the order of their positions; H or OH if unused. Non-standard residues stand in square brackets, D forms with d. Residues, ends and D or L forms follow the SMILES beside them. *: point of attachment. X1 = CC(=O)O[C@@]12[C@H](O*)[C@@H](C)[C@@]3(O)[C@@H](C=C(CO)C[C@]4(O)C(=O)C(C)=C[C@@H]34)[C@@H]1C2(C)C; 12Ado = NCCCCCCCCCCCC(=O)O; Morpholide = C1CN(*)CCO1; CO = O=C([*:1])[*:2]

The test system of test [1] is DU-145. The test is described as follows: Antiproliferative activity against human DU145 cells incubated for 72 hrs by MTT assay. Format: functional, cell-based. Background: Tetrazolium dyes change colour on reduction, which living cells bring about.
Test [2] concerns LNCaP. The test is described as follows: Antiproliferative activity against human LNCAP cells at 40 uM incubated for 72 hrs by MTT assay relative to control. Type of test: functional.
Test [3] relates to DU-145. The test is described as follows: Antiproliferative activity against human DU145 cells at 40 uM incubated for 72 hrs by MTT assay relative to control. Format: functional.
Test [4] concerns PC-3. Kind of test: Antiproliferative activity against human PC3 cells incubated for 72 hrs by MTT assay. Format: functional, cell-based.
Test [5] has as its system LNCaP. Kind of test: Antiproliferative activity against human LNCAP cells incubated for 72 hrs by MTT assay. Type of test: functional, cell-based.
For test [6], the system named is CWR22R. The test is described as follows: Antiproliferative activity against human 22Rv1 cells incubated for 72 hrs by MTT assay. Type of test: functional, cell-based.
For test [7], the system named is PC-3. The test is described as follows: Antiproliferative activity against human PC3 cells at 40 uM incubated for 72 hrs by MTT assay relative to control. Type of test: functional.
For test [8], the system named is CWR22R. The test is described as follows: Antiproliferative activity against human 22Rv1 cells at 40 uM incubated for 72 hrs by MTT assay relative to control. Type of test: functional.
Test [9] concerns PC-3. The test is described as follows: Cytotoxicity against human PC3 cells assessed as effect on cell membrane incubated for 72 hrs by LDH assay. Type of test: functional, cell-based.
The target in test [10] is T1, Protein kinase C (PKC) (Homo sapiens) (UniProt O94806+P41743+P17252+P05129+Q05655+P05771+Q05513+Q02156+P24723+Q15139+Q04759). The test is described as follows: Activation of PKC in human DU145 cells assessed as increase in ERK1/ERK2 phosphorylation at 20 uM incubated for 30 mins by Western blot analysis. Format: cell-based. The following applies: DU-145.
Test [11] deals with DU-145. Kind of test: Cytotoxicity against human DU145 cells assessed as effect on cell membrane incubated for 72 hrs by LDH assay. Type of test: functional, cell-based.
Test [12] relates to LNCaP. Kind of test: Cytotoxicity against human LNCAP cells assessed as effect on cell membrane incubated for 72 hrs by LDH assay. Type of test: functional, cell-based.
The target of test [13] is T1, Protein kinase C (PKC) (Homo sapiens). The test is described as follows: Activation of PKC in human 22Rv1 cells assessed as increase in ERK1/ERK2 phosphorylation at 20 uM incubated for 30 mins by Western blot analysis. The conditions noted are these: CWR22R. Type of test: cell-based. A general note: A western blot detects proteins with antibodies after separation by electrophoresis.

In test [14] the test system is CWR22R. Kind of test: Up regulation of PSMA in human 22Rv1 cells incubated for 72 hrs by Western blot analysis. Type of test: functional, cell-based.
For test [15], the system named is CWR22R. The test is described as follows: Cytotoxicity against human 22Rv1 cells assessed as effect on cell membrane incubated for 72 hrs by LDH assay. Type of test: functional, cell-based.
The subject of test [16] is CWR22R. Kind of test: Up regulation of PCKdelta in human 22Rv1 cells incubated for 72 hrs by Western blot analysis. Format: functional, cell-based.
Test [17] has as its system CWR22R. Kind of test: Up regulation of PCKalpha in human 22Rv1 cells at 20 uM incubated for 24 hrs by Western blot analysis. Format: functional, cell-based.
Test [18] addresses Protein kinase C alpha type (Homo sapiens) (UniProt P17252). The test is described as follows: Displacement of [3H]PDBu from recombinant human PKCalpha expressed in baculovirus infected Sf9 insect cells incubated for 10 mins by liquid scintillation counting method. In general terms: Loss of bound radioactivity is the signal in a displacement assay; it reports binding, not function.

The subject of test [19] is CWR22R. Kind of test: Up regulation of PCKalpha in human 22Rv1 cells incubated for 72 hrs by Western blot analysis. Type of test: functional, cell-based.
Test [20] has as its target T1, Protein kinase C (PKC) (Homo sapiens). Kind of test: Activation of PKC in human 22Rv1 cells assessed as increase in ERK1/ERK2 phosphorylations at 10 nM incubated for 30 mins by Western blot analysis. The following applies: CWR22R. Type of test: cell-based.
Test [21] has the same target. The test is described as follows: Activation of PKC in human DU145 cells assessed as increase in ERK1/ERK2 phosphorylation at 10 nM incubated for 30 mins by Western blot analysis. Type of test: cell-based. The following applies: DU-145.
Test [22] deals with LNCaP. Kind of test: Antiproliferative activity against human LNCAP cells at 20 to 40 uM incubated for 72 hrs by MTT assay relative to control. Type of test: functional.
For test [23], the system named is LNCaP. The test is described as follows: Antiproliferative activity against human LNCAP cells incubated for 72 hrs in presence of pan-PKC inhibitor Go6983 by MTT assay. Type of test: functional, cell-based.
The test system of test [24] is CWR22R. Kind of test: Antiproliferative activity against human 22Rv1 cells at 1 to 40 uM incubated for 72 hrs by MTT assay. Type of test: functional, cell-based.
Test [25] concerns DU-145. The test is described as follows: Antiproliferative activity against human DU145 cells at 1 to 40 uM incubated for 72 hrs by MTT assay. Format: functional, cell-based.
The test system of test [26] is LNCaP. The test is described as follows: Antiproliferative activity against human LNCAP cells at 1 to 40 uM incubated for 72 hrs by MTT assay. Type of test: functional, cell-based.
The test system of test [27] is PC-3. Kind of test: Antiproliferative activity against human PC3 cells at 1 to 40 uM incubated for 72 hrs by MTT assay. Type of test: functional, cell-based.

With `C/C=C(/C)C(=O)O[C@H]1C(C)=C2[C@H]([C@@H]1OC(=O)CCCCCCC)[C@@](C)(OC(C)=O)C[C@H](OC(=O)CCCCCCCCCCCNC(=O)C[C@H](N)C(N)=O)[C@@]1(O)[C@H]2OC(=O)[C@@]1(C)O`, the Activity entry was “Dose-dependent effect” with DU-145 [1]; 4% in the test with LNCaP [2]; 20% in the test with DU-145 [3]; “Dose-dependent effect” in the test on PC-3 [4]; “Dose-dependent effect” with LNCaP [5]; “Dose-dependent effect” in the test with CWR22R [6]. Also, the Activity in the test with PC-3 [7] is recorded as 15%; in the test with CWR22R [8], 27%.
For `CC(=O)O[C@@]12[C@H](OC(=O)CCCCCCCCCCCNC(=O)[C@@H](N)CC(C)C)[C@@H](C)[C@@]3(O)[C@@H](C=C(CO)C[C@]4(O)C(=O)C(C)=C[C@@H]34)[C@@H]1C2(C)C`, the result with PC-3 [9], in the test on DU-145 [11], in the test on LNCaP [12], in the test with CWR22R [14], in the test with CWR22R [15] and in the test on CWR22R [16] was inactive. Also, the result with CWR22R [17] and with CWR22R [19] was inactive. The Activity is recorded as 60% with LNCaP [2], 40% with DU-145 [3], 30% in the test with PC-3 [7] and 10% in the test with CWR22R [8]. Moreover, the outcome in test [10] and in [13] was Active. Besides, the “[3H]PDBu displacement (active/not active)” value in [18] is “Active”.
As to `CCCCCCCCCCCCCC(=O)O[C@@H]1[C@@H](C)[C@@]2(O)[C@@H](C=C(CO)C[C@]3(O)C(=O)C(C)=C[C@@H]23)[C@@H]2C(C)(C)[C@]12OC(C)=O`, the outcome in test [20] and in test [21] was Active. In addition, the “[3H]PDBu displacement (active/not active)” value in test [18] was “Active”.
Regarding `CC(=O)NCC(=O)N[C@@H](CCCCN)C(=O)N[C@@H](C)C(=O)N[C@@H](Cc1ccccc1)C(=O)N[C@@H](CCCNC(=N)N)C(=O)N[C@@H](CCCNC(=N)N)C(=O)N[C@@H](CC(C)C)C(=O)NCCCCCCCCCCCC(=O)O[C@@H]1[C@@H](C)[C@@]2(O)[C@@H](C=C(CO)C[C@]3(O)C(=O)C(C)=C[C@@H]23)[C@@H]2C(C)(C)[C@]12OC(C)=O` (Ac-GKAFRRL[12Ado]-X1), the outcome in the test on PC-3 [9], in the test with DU-145 [11], with LNCaP [12], with CWR22R [14], in the test on CWR22R [15] and with CWR22R [16] was inactive. Moreover, the result in the test with CWR22R [17] and in the test on CWR22R [19] was inactive. In addition, the result in [10] and in [13] was Active. For the same compound, the Activity worked out at 15% in the test on PC-3 [7] and 25% in the test on CWR22R [8]. Also, the “[3H]PDBu displacement (active/not active)” value in [18] was “Active”.
Regarding `CC(=O)O[C@@]12[C@H](OC(=O)CCCCCCCCCCCNC(=O)C[C@H](N)C(=O)N[C@@H](CCC(=O)N[C@@H](CCC(=O)N[C@@H](CCC(=O)N[C@@H](CCC(=O)O)C(=O)O)C(=O)O)C(=O)O)C(=O)O)[C@@H](C)[C@@]3(O)[C@@H](C=C(CO)C[C@]4(O)C(=O)C(C)=C[C@@H]34)[C@@H]1C2(C)C`, the outcome (in the test with PC-3 [9]; with DU-145 [11]; in the test on LNCaP [12]; in [13]; in the test on CWR22R [14]; in the test with CWR22R [15]) was inactive. Further, the outcome in the test on CWR22R [16] and in the test with CWR22R [19] was inactive. Also, the result (in test [10]; in the test with CWR22R [17]) was Active. The compound further yielded an Activity with PC-3 [7] of 10%. Also, the “[3H]PDBu displacement (active/not active)” value in [18] was “Active”.
For `CC(=O)O[C@@]12[C@H](OC(=O)CCCCCCCCCCCNC(=O)[C@H](CC(C)C)NC(=O)[C@H](CCC(N)=O)NC(=O)[C@H](CC(C)C)NC(=O)[C@H](CCCCN)NC(=O)[C@H](CO)NC(=O)[C@H](CO)NC(=O)[C@H](Cc3cnc[nH]3)NC(=O)N3CCOCC3)[C@@H](C)[C@@]3(O)[C@@H](C=C(CO)C[C@]4(O)C(=O)C(C)=C[C@@H]34)[C@@H]1C2(C)C` ({Morpholide-CO}-HSSKLQL[12Ado]-X1), the result in the test on PC-3 [9], with LNCaP [23], in the test with DU-145 [11], with LNCaP [12] and in the test on CWR22R [15] was inactive. The same compound came in with an Activity with LNCaP [22] of 32%. Besides, the result in test [10] and in test [13] was Active. In test [18], the “[3H]PDBu displacement (active/not active)” value was “inactive”.
As to `C/C=C(/C)C(=O)O[C@H]1C(C)=C2[C@H]([C@@H]1OC(=O)CCCCCCC)[C@@](C)(OC(C)=O)C[C@H](OC(=O)CCCCCCCCCCCNC(=O)C[C@H](N)C(=O)N[C@@H](CCC(=O)N[C@@H](CCC(=O)N[C@@H](CCC(=O)N[C@@H](CCC(=O)O)C(=O)O)C(=O)O)C(=O)O)C(=O)O)[C@@]1(O)[C@H]2OC(=O)[C@@]1(C)O` [MIPSAGARGIN], the Activity was 35% in the test with LNCaP [2], 32% with PC-3 [7] and 40% in the test with CWR22R [8].
On to `CC(=O)O[C@@]12[C@H](OC(=O)CCCCCCCCCCCNC(=O)C[C@H](N)C(C)C)[C@@H](C)[C@@]3(O)[C@@H](C=C(CO)C[C@]4(O)C(=O)C(C)=C[C@@H]34)[C@@H]1C2(C)C`, for which the result with PC-3 [9], in the test with CWR22R [24], in the test with DU-145 [25], in the test on LNCaP [26], in the test with DU-145 [11] and in the test on LNCaP [12] was inactive. The outcome in the test with CWR22R [14], in the test with CWR22R [15], with CWR22R [16], in the test with PC-3 [27] and in the test with CWR22R [19] was inactive. The outcome (in [10]; in [13]; with CWR22R [17]) was Active. The “[3H]PDBu displacement (active/not active)” value in test [18] was “Active”.
